Experiments:
VCaP 3D spheroids = assay: 3D spheroid culture; format: cell-based, human; settings: VCaP 3D spheroid culture, compared with cabozantinib
Description: Nuclear red fluorescent protein-expressing VCaP cells were seeded in ultralow attachment 96-well plates and spun down at 1000 rpm for 10 minutes to pellet cells. Spheroids were formed after 3 days of incubation in a cell culture incubator, and then treatment was started. Red fluorescence intensity was monitored by IncuCyte ZOOM.

[1] = system: castration-resistant VCaP tumors; assay: castration-resistant VCaP xenograft mouse model; format: in vivo; settings: 30 or 60 mg/kg
Description: (§1) Four- to six-week old male CB17 severe combined immunodeficiency (SCID) mice were procured from the University of Michigan breeding colony. Subcutaneous tumors were established at both sides of the dorsal flank of mice. Tumors were measured at least biweekly using digital calipers following the formula (π/6) (L×W2), where L=length and W=width of the tumor. At the end of the studies, mice were sacrificed and tumors extracted and weighed. The University of Michigan University Committee on the Use and Care of Animals (UCUCA) approved all in vivo studies. For the VCaP castration-resistant tumor model, 3×10^6 VCaP cells were injected subcutaneously into the dorsal flank on both sides of the mice in serum-free medium with 50% Matrigel (BD Biosciences). Once tumors reached a palpable stage (˜200 mm^3), tumor-bearing mice were castrated. Once tumors grew back to the pre-castration size, mice were randomized and treated with either 30 mg/kg, 60 mg/kg ESK981, or vehicle (ORA-PLUS) by oral gavage 5 days per week. For the DU145 xenograft tumor model, 1×10^6 DU145 cells were injected subcutaneously into the dorsal flank on both sides of the mice in serum-free medium with 50% Matrigel. When tumors reached ˜100 mm^3, tumor-bearing mice were randomized and treated with 30 mg/kg ESK981 or vehicle (ORA-PLUS) by oral gavage 5 days per week.

DU145 tumors = assay: DU145 xenograft tumor model; format: in vivo, mouse; settings: 30 mg/kg
Description: as §1

[2] = system: GFP-LC3 expressing DU145 cells; assay: GFP-LC3 puncta confocal imaging; format: cell-based, human
Description: For GFP-LC3 confocal imaging, GFP-LC3 expressing DU145 cells were seeded on coverslips overnight and treated with ESK981 at 300 nM for various time points. Coverslips were then fixed with 10% paraformaldehyde. Confocal images were taken using a Nikon A1 confocal microscope.

CXCL10 in VCaP cells = assay: human CXCL10 ELISA of conditioned medium; format: cell-based; settings: VCaP-conditioned medium, 300 nM, 24 hours
Description: Conditioned medium was collected after 24 hours of drug incubation. ELISA was performed using a human CXCL10 ELISA kit (Cat No. KAC2361, ThermoFisher), or a mouse CXCL10 ELISA kit (Cat No. ab214563, Abcam) according to the manufacturer's instructions.

VCaP cells = assay: untargeted lipidomic analysis; format: cell-based, human; settings: 300 nM, 6 and 24 hours
Description: Details of sample preparation and identification for untargeted lipidomic profiling have been previously reported^68. The lipids were extracted using a modified Bligh-Dyer method^69. The extraction was carried out using a 2:2:2 volume ratio of water:methanol:dichloromethane at room temperature after spiking internal standard lipids (17:0LPC, 17:0PC, 17:0PE, 17:0PG, 17:0 ceramide, 17:0SM, 17:0PS, 17:0PA, 17:0TG, 17:0MG, d5-DG, d31-TG, and 17.0-20.4 PI). The organic layer was collected and dried completely under nitrogen. The organic dried extract containing lipids was further analyzed by LC-MS-based lipidomics. The dried lipid extracts were injected onto a 1.8-μm particle 50×2.1 mm id Waters Acquity HSS T3 column (Waters, Milford, MA), which was heated to 55° C. […] As controls (QC) to monitor the profiling process, a pool of plasma and test plasma (a small aliquot from all test samples) were extracted and analyzed in tandem with the experimental samples. These controls were incorporated multiple times into the randomization scheme such that sample preparation and analytical variability could be constantly monitored. […] Identified lipids were quantified by normalizing against their respective internal standard. […] The QC samples were mainly used to remove technical outliers and lipid species that were detected below the lipid class-based lower limit of quantification.

PIK3CA = target: T1, PIK3CA (Homo sapiens, UniProt P42336); assay: kinase dissociation constant analysis (KdELECT); format: binding; settings: 11-point dose-response, duplicate
T1 construct: purchased DiscoveRX (KdELECT)
T1 sequence (P42336 whole entry): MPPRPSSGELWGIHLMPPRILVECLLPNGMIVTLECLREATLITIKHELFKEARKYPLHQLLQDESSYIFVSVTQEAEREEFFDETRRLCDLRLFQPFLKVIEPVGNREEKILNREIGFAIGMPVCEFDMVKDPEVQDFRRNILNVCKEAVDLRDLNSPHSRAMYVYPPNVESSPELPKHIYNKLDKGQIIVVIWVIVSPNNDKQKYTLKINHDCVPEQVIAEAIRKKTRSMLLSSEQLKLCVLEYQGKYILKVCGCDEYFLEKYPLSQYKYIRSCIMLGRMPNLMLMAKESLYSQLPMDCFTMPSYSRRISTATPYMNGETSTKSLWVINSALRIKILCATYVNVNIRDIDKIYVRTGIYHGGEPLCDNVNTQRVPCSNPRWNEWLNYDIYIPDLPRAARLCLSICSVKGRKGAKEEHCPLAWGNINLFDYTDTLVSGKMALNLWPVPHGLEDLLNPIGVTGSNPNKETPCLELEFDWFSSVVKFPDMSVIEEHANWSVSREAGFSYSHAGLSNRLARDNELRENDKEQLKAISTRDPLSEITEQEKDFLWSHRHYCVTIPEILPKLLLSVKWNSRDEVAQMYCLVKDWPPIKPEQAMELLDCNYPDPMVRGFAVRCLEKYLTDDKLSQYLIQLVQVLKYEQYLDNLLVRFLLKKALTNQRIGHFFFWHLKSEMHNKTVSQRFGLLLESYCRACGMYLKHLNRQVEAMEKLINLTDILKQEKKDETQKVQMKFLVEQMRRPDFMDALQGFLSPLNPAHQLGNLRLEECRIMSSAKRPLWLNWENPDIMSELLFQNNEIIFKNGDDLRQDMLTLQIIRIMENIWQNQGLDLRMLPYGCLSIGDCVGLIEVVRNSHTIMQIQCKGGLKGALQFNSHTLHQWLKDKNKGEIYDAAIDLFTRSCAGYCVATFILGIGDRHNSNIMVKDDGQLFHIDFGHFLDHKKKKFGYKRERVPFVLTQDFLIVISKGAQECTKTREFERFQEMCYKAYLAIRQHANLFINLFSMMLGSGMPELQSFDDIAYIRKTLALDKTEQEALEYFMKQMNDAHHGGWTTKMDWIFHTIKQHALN
Description: (§2) Quantitative binding constants (Kd) of ESK981 to PIKfyve, PIP5K1A, PIP5K1C, and PIK3CA were generated using KdELECT® platform (DiscoveRX). An 11-point dose-response of ESK981 (0.05-3000 nM) was used, and the experiment was performed in duplicate. Detailed information is described on the DiscoveRX website (www.discoverx.com).

PIP5K1A = target: T2, PIP5K1A (Homo sapiens, UniProt Q99755); assay: kinase dissociation constant analysis (KdELECT); format: binding; settings: 11-point dose-response, duplicate
T2 construct: purchased DiscoveRX (KdELECT)
T2 sequence (Q99755 whole entry): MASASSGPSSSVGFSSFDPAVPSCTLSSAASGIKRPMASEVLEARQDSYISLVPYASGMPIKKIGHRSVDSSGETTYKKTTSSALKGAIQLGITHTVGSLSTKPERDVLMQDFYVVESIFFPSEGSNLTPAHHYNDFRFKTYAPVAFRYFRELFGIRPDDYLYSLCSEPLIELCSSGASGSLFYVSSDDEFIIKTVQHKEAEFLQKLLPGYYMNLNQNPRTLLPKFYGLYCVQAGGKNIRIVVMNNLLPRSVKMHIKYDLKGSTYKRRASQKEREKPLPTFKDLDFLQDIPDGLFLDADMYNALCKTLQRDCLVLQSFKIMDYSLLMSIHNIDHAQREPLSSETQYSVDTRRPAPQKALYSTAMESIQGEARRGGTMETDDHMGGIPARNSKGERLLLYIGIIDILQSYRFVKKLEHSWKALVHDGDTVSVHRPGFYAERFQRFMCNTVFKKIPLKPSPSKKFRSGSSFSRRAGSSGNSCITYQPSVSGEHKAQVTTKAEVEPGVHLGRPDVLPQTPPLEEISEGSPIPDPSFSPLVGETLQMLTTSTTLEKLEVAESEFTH
Description: as §2

PIP5K1C = target: T3, PIP5K1C (Homo sapiens, UniProt O60331); assay: kinase dissociation constant analysis (KdELECT); format: binding; settings: 11-point dose-response, duplicate
T3 construct: purchased DiscoveRX (KdELECT)
T3 sequence (O60331 whole entry): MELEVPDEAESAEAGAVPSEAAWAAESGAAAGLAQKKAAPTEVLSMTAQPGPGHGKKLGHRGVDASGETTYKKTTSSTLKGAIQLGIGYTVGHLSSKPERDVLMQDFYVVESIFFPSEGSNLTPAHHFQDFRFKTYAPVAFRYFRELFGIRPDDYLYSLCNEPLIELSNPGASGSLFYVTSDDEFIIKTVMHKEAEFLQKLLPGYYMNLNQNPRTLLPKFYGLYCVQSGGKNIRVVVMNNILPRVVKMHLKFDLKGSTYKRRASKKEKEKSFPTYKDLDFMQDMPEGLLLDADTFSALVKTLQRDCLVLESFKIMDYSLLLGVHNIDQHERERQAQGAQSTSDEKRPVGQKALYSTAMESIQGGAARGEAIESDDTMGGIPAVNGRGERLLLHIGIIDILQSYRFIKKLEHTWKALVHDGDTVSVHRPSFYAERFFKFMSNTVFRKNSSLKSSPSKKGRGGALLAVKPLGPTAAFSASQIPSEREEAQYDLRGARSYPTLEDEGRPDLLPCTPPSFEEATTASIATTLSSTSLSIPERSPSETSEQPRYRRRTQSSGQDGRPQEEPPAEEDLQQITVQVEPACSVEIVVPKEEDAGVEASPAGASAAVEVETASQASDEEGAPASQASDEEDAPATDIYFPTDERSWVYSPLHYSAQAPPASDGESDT
Description: as §2

[3] = system: advanced, relapsed, or refractory solid tumors; settings: cited from earlier work

CC(C)Cn1c2ccc(Nc3ncccn3)cc2c2c3c(c4c(c21)CCc1nn(C)cc1-4)C(=O)NC3 [ESK981, 13-isobutyl-4-methyl-10-(pyrimidin-2-ylamino)-1,2,4,7,8,13-hexahydro-6H-indazolo[5,4-a]pyrrolo[3,4-c]carbazol-6-one]
inhibitory effect on 3D spheroids (VCaP 3D spheroids): more robust inhibitory effect at relatively lower concentrations than cabozantinib | cell proliferation by Ki67 IHC ([1]; five days of treatment): dose-dependent reductions | tumor weights ([1]; oral gavage): dose-dependent reductions | tumor growth of VCaP xenografts ([1]; oral gavage, castrated SCID mice, vs vehicle): significant dose-dependent growth inhibiton | tumor weights (DU145 tumors): significant decreases in tumor weights | tumor growth (DU145 tumors; oral gavage 5 days per week, SCID mice): Significant inhibition of tumor growth | time to vacuole formation [2]: only observed after four hours of treatment | time to LC3 puncta formation ([2]; 300 nM): ≤ 1 h | rank in inducing CXCL10 levels among compound libraries (CXCL10 in VCaP cells): ranked first in inducing CXCL10 levels in the tyrosine kinase inhibitor library and second in the autophagy-linked compound library | major lipid changed (VCaP cells): phosphatidylethanolamine (PE) was the major lipid increased | Kd (PIK3CA): > 10 µM | Kd (PIP5K1A): 230 nM | Kd (PIP5K1C): 210 nM | evaluable patients achieving stable disease ([3]; measured at ≥6 weeks of ESK981 treatment): 51% | safety, pharmacokinetic and pharmacodynamic profiles ([3]; patients with advanced, relapsed, or refractory solid tumors): favorable safety, pharmacokinetic, and pharmacodynamic profiles

Reference: US20230364084A1, “METHODS FOR PREVENTING OR TREATING CONDITIONS RELATED TO PIKFYVE ACTIVITY” (The Regents of the University of Michigan, priority 2020, published 2023)
